In US11272841B2, “Indicator fluids, systems, and methods for assessing movement of substances within, to or from a cerebrospinal fluid, brain or spinal cord compartment of a cranio-spinal cavity of a human” (BRAINWIDESOLUTIONS AS, priority 2017, dated 2022):
Where “and” joins values, the source holds several entries; their conditions need not be identical. Equal values may be shown once. Marks after values point to notes of the source that are not given here.

Assay: Repeated standardized T1-weighted MRI: signal units (SU) in ROIs of CSF, venous space and brain tissue after intrathecal gadobutrol, iNPH versus reference patients (Tables 2-4, FIG. 14b, 16);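 as to Max Increase in SU of T1 signal, numerical change: Gadobutrol 0.5 mL of 1.0 mmol/mL given intrathecally into CSF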;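 as to Max Increase in SU of T1 signal, percentage change: Gadobutrol 0.5 mL of 1.0 mmol/mL given intrathecally into CSF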
Assay type: in vivo, human
Conditions: for Max Increase in SU of T1 signal, numerical change / Max Increase in SU of T1 signal, percentage change: one patient per row; for Average indication signal within brain tissue ROI: one individual, FIG. 14b
Procedure: The different features of Aspect 2 are based on novel in-vivo observations in humans. […] In the following paragraphs, these novel observations in humans are commented on in more detail. In these studies, the MRI contrast agent gadobutrol served as indicator fluid and MRI SUs were indication signals. MRI T1 weighted signal units were measured when gadobutrol was present within CSF after having been administered to the CSF compartment, and were compared with MR images having identical sequence parameter settings and with no gadobutrol present in CSF. […] With a MW of 605 Da, gadobutrol is a rather large molecule in comparison to the MW of water (H2O) molecule, which is 18 Da. Clearance of gadobutrol is then indicative of clearance of other substances with similar properties.
We explored both movement of the contrast agent within, to, and from the cranio-spinal cavity, including CSF, brain and spinal cord compartment, and from the cranio-spinal cavity to extra-cranial LNs. With gadobutrol present within CSF, blood level concentrations of contrast agents were determined at various time point. The repeated MRI acquisitions made it possible to create clearance curves for one or more pixels, defined by ROIs. ROIs were placed within CSF compartments, brain and spinal cord tissue compartments, and extracranial LN tissue compartments. By means of MRI, we could create graphic curves illustrating clearance of substances (clearance illustrating curves) for defined ROIs built up of a defied number of pixels for each individual. For details of said clearance curves, see FIG. 7. The establishment of clearance curves was dependent on repeated MRI acquisitions over a long period.
Using MRI SUs, we created clearance illustrating curves, see FIG. 7, for the individual patients as well as for groups of individuals. Tables 2-4 illustrate various examples of parameter values of the clearance illustrating curves.
Table 2, as discussed with FIG. 2, illustrates how maximum increase in SUs varies between individuals and patient groups. Tables 3 and 4 compare such clearance curve parameters from two patient groups, namely iNPH and reference (i.e. control) patients, illustrating inter-individual differences and differences between patient groups. These patient groups represent no limitation of the invention as it may be used in various patient groups such as Alzheimer's and dementia in general, brain tumor (e.g. astrocytoma), multiple sclerosis and inflammatory brain disease, stroke (brain infarction or bleeds), sleep disturbances, neurodegenerative disease, CSF circulation disorders, traumatic brain injury, neurometabolic diseases, glaucoma, chronic headache and migraine, and in assessment of ageing in general.
Even though perfect match of ROIs of repeated images may be difficult to obtain, the second aspect of the invention is facilitated by that image acquisition parameters at repeated MRI acquisitions are kept fixed and thus standardized. […] Further, to make best possible alignments of pixels, methods for alignment of repeated MRI acquisitions need to be implemented. Methods for alignment of repeated MRI images belong to prior art. Aids to improve alignment may incorporate landmark locations such as the cranial vault, pineal gland, and ventricular system.
Each image acquisition lasted 6 minutes and 29 seconds.

[1] = CSF space: Lateral Ventricle, iNPH
[2] = CSF space: Precentral sulcus, Reference
[3] = CSF space: Precentral sulcus, iNPH
[4] = CSF space: Sylvian fissure, Reference
[5] = CSF space: Sylvian fissure, iNPH
[6] = Central venous space: Sagittal sinus/confluence, Reference
[7] = Central venous space: Sagittal sinus/confluence, iNPH
[8] = Inferior frontal gyrus (IFG), REF
[9] = Inferior frontal gyrus (IFG), iNPH

Clearance coefficient (SU/min) [1]: −0.05 ± 0.04 SU/min
Clearance time [1]: 1115.1 ± 46.3 min
Enhancement coefficient (SU/min) [1]: 0.41 SU/min
Max increase (SU) [1]: 168.5 ± 99.8^b SU
Max reduction (SU) [1]: −57.3 ± 48.9 SU
Time to peak [1]: 843.4 ± 560.2 min
Clearance coefficient (SU/min) (CSF space: Pons, Reference): −0.25 ± 0.08 SU/min
Clearance time (CSF space: Pons, Reference): 1261.5 ± 137.0 min
Enhancement coefficient (SU/min) (CSF space: Pons, Reference): 10.8 SU/min
Max reduction (SU) (CSF space: Pons, Reference): −313.3 ± 105.3 SU
Time to peak (CSF space: Pons, Reference): 159.8 ± 148.9 min
Clearance coefficient (SU/min) (CSF space: Pons, iNPH): −0.15 ± 0.08^b SU/min
Clearance time (CSF space: Pons, iNPH): 1207.9 ± 114.8 min
Enhancement coefficient (SU/min) (CSF space: Pons, iNPH): 2.4 SU/min
Max reduction (SU) (CSF space: Pons, iNPH): −177.9 ± 95.5^b SU
Time to peak (CSF space: Pons, iNPH): 230.9 ± 98.4 min
Enhancement coefficient (SU/min) [2]: 0.29 SU/min
Max increase (SU) [2]: 87.8 ± 99.3 SU
Time to peak [2]: 475.0 ± 601.9 min
Enhancement coefficient (SU/min) [3]: 0.10 SU/min
Max increase (SU) [3]: 131.1 ± 94.1 SU
Time to peak (min) [3]: 1254.7 ± 483.8^b min
Clearance coefficient (SU/min) [4]: −0.12 ± 0.06 SU/min
Clearance time [4]: 1162.6 ± 78.1 min
Enhancement coefficient (SU/min) [4]: 0.9 SU/min
Max increase (SU) [4]: 204.2 ± 104.4 SU
Max reduction (SU) [4]: −133.0 ± 68.4 SU
Time to peak [4]: 258.6 ± 114.8 min
Clearance coefficient (SU/min) [5]: −0.06 ± 0.05^a SU/min
Clearance time [5]: 1123.7 ± 41.1 min
Enhancement coefficient (SU/min) [5]: 0.57 SU/min
Max increase (SU) [5]: 226.2 ± 100.2 SU
Max reduction (SU) [5]: −68.0 ± 51.2^a SU
Time to peak (min) [5]: 689.0 ± 536.3^a min
Clearance coefficient (SU/min) [6]: −0.008 ± 0.003 SU/min
Clearance time [6]: 1247.3 ± 175.9 min
Enhancement coefficient (SU/min) [6]: 0.41 SU/min
Max increase (SU) [6]: 7.4 ± 9.6 SU
Max reduction (SU) [6]: −9.5 ± 3.9 SU
Time to peak [6]: 524.4 ± 591.3 min
Clearance coefficient (SU/min) [7]: −0.01 ± 0.006 SU/min
Clearance time [7]: 1287.4 ± 150.9 min
Enhancement coefficient (SU/min) [7]: 0.16 SU/min
Max increase (SU) [7]: 8.1 ± 8.0 SU
Max reduction (SU) [7]: −12.1 ± 6.7 SU
Time to peak [7]: 350.2 ± 457.3 min
SU within ROI (entorhinal cortex, FIG. 16h, intrathecal gadobutrol present for 24 hours (46 SU without)): 136 SU
Average indication signal within brain tissue ROI (3 hours after intrathecal gadobutrol (80 SU without gadobutrol)): 83 SU
Average indication signal within brain tissue ROI (9 hours after intrathecal gadobutrol): 103 SU
Average indication signal within brain tissue ROI (24 hours after intrathecal gadobutrol): 107 SU
SU within ROI (subcortical area of entorhinal cortex, FIG. 16f, intrathecal gadobutrol present for 24 hours (109 SU without)): 180 SU
SMILES: O=C([O-])CN1CCN(CC(=O)[O-])CCN([C@H](CO)[C@H](O)CO)CCN(CC(=O)[O-])CC1.[Gd+3] (racemic) [gadobutrol]
Max Increase in SU of T1 signal, numerical change (Frontal horn, REF): 23 SU and 7 (7%) SU and 4 SU and 4 (4%) SU and 3 (3%) SU and 9 SU and 17 SU
Max Increase in SU of T1 signal, percentage change (Frontal horn, REF): 37% and 7 (7%) and 3% and 4 (4%) and 3 (3%) and 8% and 21%
Max Increase in SU of T1 signal, numerical change (Frontal horn, iNPH): 13 SU and 103 SU and 35 SU and 76 SU and 92 SU and 50 SU and 2 (2%) SU and 49 SU and 53 SU and 42 SU and 8 SU and 19 SU and 21 SU
Max Increase in SU of T1 signal, percentage change (Frontal horn, iNPH): 15% (2×) and 204% and 40% and 159% and 131% and 98% and 2 (2%) and 126% and 110% and 70% and 22% and 23%
Max Increase in SU of T1 signal, numerical change [8]: 68 SU and 5 (5%) SU and 24 SU and 13 SU and 23 SU and 37 SU and 18 SU
Max Increase in SU of T1 signal, percentage change [8]: 80% and 5 (5%) and 27% and 14% and 25% and 41% and 21%
Max Increase in SU of T1 signal, numerical change [9]: 70 SU and 56 SU and 32 SU and 51 SU and 74 SU and 21 SU and 24 SU and 36 SU and 59 SU and 10 SU (2×) and −1 (−1%) SU and 25 SU
Max Increase in SU of T1 signal, percentage change [9]: 83% and 68% (2×) and 38% and 63% and 95% and 23% and 31% and 46% and 12% and −1 (−1%) and 11% and 28%
Max Increase in SU of T1 signal, numerical change (Precentral gyrus, REF): 10 SU and 1 (1%) SU and 8 SU and 2 (2%) SU and 6 SU and 34 SU and 3 SU
Max Increase in SU of T1 signal, percentage change (Precentral gyrus, REF): 12% and 1 (1%) and 9% and 2 (2%) and 7% and 41% and 4%
Max Increase in SU of T1 signal, numerical change (Precentral gyrus, iNPH): 28 SU and 7 SU and 7 (7%) SU and 2 (2%) SU (2×) and 18 SU and 5 (5%) SU and 8 SU and 2 SU and 6 SU (2×) and 4 SU and 3 SU
Max Increase in SU of T1 signal, percentage change (Precentral gyrus, iNPH): 32% and 8% and 7 (7%) and 2 (2%) (2×) and 22% and 5 (5%) and 10% and 3% and 7% (2×) and 5% and 4%
Max Increase in SU of T1 signal, numerical change (Thalamus, REF): 23 SU and 4 (4%) SU and 3 SU and 2 (2%) SU and 13 (13%) SU (2×) and 8 SU
Max Increase in SU of T1 signal, percentage change (Thalamus, REF): 26% and 4 (4%) and 2% and 2 (2%) and 13 (13%) (2×) and 9%
Max Increase in SU of T1 signal, numerical change (Thalamus, iNPH): 16 SU and 23 SU and 9 SU (2×) and 14 SU and 25 SU and 4 (4%) SU and 10 SU and 19 SU and 7 SU and 2 (2%) SU and 12 SU (2×)
Max Increase in SU of T1 signal, percentage change (Thalamus, iNPH): 18% and 24% and 11% (2×) and 17% and 28% and 4 (4%) and 12% and 21% and 8% and 2 (2%) and 14% and 13%
Max Increase in SU of T1 signal, numerical change (brain tissue Pons, REF): 20 SU and 5 (5%) SU (2×) and 3 (3%) SU and 9 (9%) SU and 7 (7%) SU and 9 SU
Max Increase in SU of T1 signal, percentage change (brain tissue Pons, REF): 21% and 5 (5%) (2×) and 3 (3%) and 9 (9%) and 7 (7%) and 10%
Max Increase in SU of T1 signal, numerical change (brain tissue Pons, iNPH): 17 (17%) SU and 24 (24%) SU and 15 SU and 21 SU and 14 (14%) SU and 4 (4%) SU (2×) and 9 SU (2×) and 18 (18%) SU and 3 (3%) SU and 2 (2%) SU and 6 (6%) SU
Max Increase in SU of T1 signal, percentage change (brain tissue Pons, iNPH): 17 (17%) and 24 (24%) and 16% and 24% and 14 (14%) and 4 (4%) (2×) and 10% (2×) and 18 (18%) and 3 (3%) and 2 (2%) and 6 (6%)
